One assay relates to MCF7. As to the kind of experiment: Antiproliferative activity against human MCF7 cells assessed as reduction in cell viability after 72 hrs by MTT assay. To be noted: MCF7, 72 h. On the technique in general: Formazan colour is commonly taken as a measure of viable cells.
The subject of the next assay is HCT-116. As to the kind of experiment: Antiproliferative activity against human HCT-116 cells assessed as reduction in cell viability after 72 hrs by MTT assay. To be noted: HCT-116, 72 h.
The test system of another assay is HepG2. The assay is described as follows: Antiproliferative activity against human HepG2 cells assessed as reduction in cell viability after 72 hrs by MTT assay. To be noted: HepG2, 72 h.
Assay [1] can be described thus: Cytotoxicity against human PBMC cells assessed as cell viability after 72 hrs by MTT assay.
A further assay deals with L02. As to the kind of experiment: Cytotoxicity against human L02 cells assessed as cell viability after 72 hrs by MTT assay. To be noted: L02, 72 h.
The next assay concerns B16. The assay is described as follows: Antiproliferative activity against mouse B16 cells assessed as reduction in cell viability after 72 hrs by MTT assay. To be noted: B16, 72 h.
Another assay has as its system K562. The assay is described as follows: Antiproliferative activity against human K562 cells assessed as reduction in cell viability after 72 hrs by MTT assay. To be noted: K562, 72 h.

Some results are limits rather than exact numbers.

Turning to `C=C1C(=O)[C@]23[C@H](OC(=O)CCC(=O)OCCCOc4ccc(-c5cc(=S)ss5)cc4)[C@H]1CC[C@H]2[C@@]12CO[C@@]3(O)[C@@H](O)[C@@H]1C(C)(C)CCC2=O`, the IC50 (in general, the concentration needed to halve the response being measured) with MCF7 was 19.5 µM; in the assay with HCT-116, 14 µM; in the assay on HepG2, 5.01 µM; in assay [1] it was greater than 50 µM; with L02, greater than 50 µM; in the assay with B16, greater than 50 µM. The IC50 in the assay on K562 amounted to 7.12 µM.
Regarding `Oc1ccc(-c2cc(=S)ss2)cc1`, the IC50 (in the assay with MCF7; in the assay with HCT-116; in the assay on HepG2; in assay [1]; in the assay with L02; with B16) was greater than 50 µM in each case. Moreover, the half-maximal inhibitory concentration (IC50) in the assay with K562 was greater than 50 µM.
Take `O=c1[nH]cc(F)c(=O)[nH]1` [FLUOROURACIL]: the IC50 is 26.7 µM in the assay on MCF7; 32.6 µM in the assay on HepG2; greater than 50 µM in assay [1]; greater than 50 µM with L02; 12.6 µM with B16.
As for `C=C1C(=O)[C@]23[C@H](OC(=O)CCCC(=O)OCCCOc4ccc(-c5cc(=S)ss5)cc4)[C@H]1CC[C@H]2[C@@]12CO[C@@]3(O)[C@@H](O)[C@@H]1C(C)(C)CCC2=O`, the concentration for half-maximal inhibition (IC50) in the assay with MCF7 is 12.5 µM; in the assay with HCT-116, 23.7 µM; in the assay with HepG2, 2.58 µM; in assay [1] it was greater than 50 µM; in the assay with L02, 27.2 µM; in the assay with B16, 39.9 µM. For the same compound, in the assay with K562, the IC50 is 3.59 µM.
`C=C1C(=O)[C@]23[C@H](OC(=O)CCC(=O)OCCCCCCOc4ccc(-c5cc(=S)ss5)cc4)[C@H]1CC[C@H]2[C@@]12CO[C@@]3(O)[C@@H](O)[C@@H]1C(C)(C)CCC2=O`: the IC50 was 34.8 µM with MCF7; greater than 50 µM with HCT-116; 10.5 µM in the assay with HepG2; greater than 50 µM in assay [1]; greater than 50 µM with L02; greater than 50 µM with B16. Also, the IC50 in the assay on K562 stood at 5.87 µM.
Regarding `C=C1C(=O)[C@]23[C@H](OC(=O)CCCC(=O)OCCOc4ccc(-c5cc(=S)ss5)cc4)[C@H]1CC[C@H]2[C@@]12CO[C@@]3(O)[C@@H](O)[C@@H]1C(C)(C)CC[C@@H]2O`, the 50% inhibitory concentration (IC50) in the assay on MCF7 was 18.3 µM; with HCT-116, 38.4 µM; in the assay with HepG2, 6.6 µM; in assay [1] it was greater than 50 µM; with L02, 39.1 µM; with B16 it was greater than 50 µM. Moreover, in the assay on K562, the concentration for half-maximal inhibition (IC50) worked out at 4.89 µM.
For `C=C1C(=O)[C@]23[C@H](OC(=O)CCCC(=O)OCCCCCCOc4ccc(-c5cc(=S)ss5)cc4)[C@H]1CC[C@H]2[C@@]12CO[C@@]3(O)[C@@H](O)[C@@H]1C(C)(C)CC[C@@H]2OC(C)=O`, the IC50 in the assay with MCF7 was greater than 50 µM; with HCT-116, greater than 50 µM; with HepG2, 15.6 µM; in assay [1], greater than 50 µM; with L02 it was greater than 50 µM; in the assay with B16, greater than 50 µM. In addition, the IC50 with K562 worked out at 13.9 µM.
As to `C=C1C(=O)[C@]23[C@H](OC(=O)CCCC(=O)OCCCOc4ccc(-c5cc(=S)ss5)cc4)[C@H]1CC[C@H]2[C@@]12CO[C@@]3(O)[C@@H](O)[C@@H]1C(C)(C)CC[C@@H]2OC(C)=O`, the IC50 is 15.8 µM in the assay on MCF7; 37.5 µM in the assay on HCT-116; 3.57 µM in the assay with HepG2; greater than 50 µM in assay [1]; 33.5 µM in the assay with L02; greater than 50 µM with B16. Besides, the 50% inhibitory concentration (IC50) with K562 was 5.93 µM.
For the compound `C=C1C(=O)[C@]23[C@H](O)[C@H]1CC[C@H]2[C@@]12CO[C@@]3(O)[C@@H](O)[C@@H]1C(C)(C)CC[C@@H]2OC(C)=O` [LASIOKAURIN], the IC50 in the assay with MCF7 is 19.8 µM; in the assay on HCT-116 it was 13.5 µM; in the assay with HepG2, 11.9 µM; in assay [1], greater than 50 µM; in the assay on L02, 25.4 µM; with B16 it was 32.6 µM. In the assay on K562, the IC50 worked out at 5.21 µM.
For `C=C1C(=O)[C@]23[C@H](OC(=O)CCCC(=O)OCCCCCCOc4ccc(-c5cc(=S)ss5)cc4)[C@H]1CC[C@H]2[C@@]12CO[C@@]3(O)[C@@H](O)[C@@H]1C(C)(C)CCC2=O`, the IC50 in the assay on MCF7 is greater than 50 µM; with HCT-116 it was greater than 50 µM; in the assay on HepG2, 9.33 µM; in assay [1], greater than 50 µM; with L02 it was greater than 50 µM; with B16 it was greater than 50 µM. In addition, in the assay with K562, the IC50 came out at 8.89 µM.
Take `C=C1C(=O)[C@]23[C@H](OC(=O)CCC(=O)OCCCOc4ccc(-c5cc(=S)ss5)cc4)[C@H]1CC[C@H]2[C@@]12CO[C@@]3(O)[C@@H](O)[C@@H]1C(C)(C)CC[C@@H]2OC(C)=O`: the IC50 in the assay with MCF7 is 20.8 µM; in the assay with HCT-116, 22.1 µM; in the assay with HepG2, 6.3 µM; in assay [1], greater than 50 µM; in the assay on L02 it was 22.3 µM; with B16 it was 16.4 µM. The IC50 with K562 stood at 2.44 µM.
For the compound `C=C1C(=O)[C@]23[C@H](OC(=O)CCC(=O)OCCOc4ccc(-c5cc(=S)ss5)cc4)[C@H]1CC[C@H]2[C@@]12CO[C@@]3(O)[C@@H](O)[C@@H]1C(C)(C)CCC2=O`, the 50% inhibitory concentration (IC50) with MCF7 was 25.4 µM; with HCT-116, greater than 50 µM; with HepG2, 7.52 µM; in assay [1], greater than 50 µM; in the assay on L02, 39.6 µM; in the assay on B16, greater than 50 µM. In the assay with K562, the IC50 turned out to be 8.79 µM.
Regarding `C=C1C(=O)[C@]23[C@H](OC(=O)CCCC(=O)OCCOc4ccc(-c5cc(=S)ss5)cc4)[C@H]1CC[C@H]2[C@@]12CO[C@@]3(O)[C@@H](O)[C@@H]1C(C)(C)CCC2=O`, the half-inhibitory concentration (IC50) in the assay on MCF7 is 27.5 µM; in the assay with HCT-116, 34.9 µM; in the assay with HepG2 it was 7.65 µM; in assay [1], greater than 50 µM; with L02, 42.2 µM; with B16 it was greater than 50 µM. Moreover, the concentration for half-maximal inhibition (IC50) in the assay with K562 was determined as 5.75 µM.
As for `C=C1C(=O)[C@]23[C@H](OC(=O)CCCC(=O)OCCOc4ccc(-c5cc(=S)ss5)cc4)[C@H]1CC[C@H]2[C@@]12CO[C@@]3(O)[C@@H](O)[C@@H]1C(C)(C)CC[C@@H]2OC(C)=O`, the IC50 in the assay with MCF7 is greater than 50 µM; with HCT-116 it was greater than 50 µM; with HepG2 it was 4.78 µM; in assay [1] it was greater than 50 µM; in the assay on L02, 26.8 µM; with B16 it was 11.1 µM. Also, the 50% inhibitory concentration (IC50) in the assay with K562 is 1.86 µM.
`C=C1C(=O)[C@]23[C@H](O)[C@H]1CC[C@H]2[C@@]12CO[C@@]3(O)[C@@H](O)[C@@H]1C(C)(C)CCC2=O`: the IC50 in the assay with MCF7 was 15.4 µM; with HCT-116, 10.7 µM; with HepG2, 10.5 µM; in assay [1], greater than 50 µM; in the assay with L02, 28.5 µM; with B16, 25.5 µM. The IC50 in the assay with K562 was found to be 4.17 µM.
For `C=C1C(=O)[C@]23[C@H](OC(=O)CCC(=O)OCCOc4ccc(-c5cc(=S)ss5)cc4)[C@H]1CC[C@H]2[C@@]12CO[C@@]3(O)[C@@H](O)[C@@H]1C(C)(C)CC[C@@H]2OC(C)=O`, the IC50 is 24.7 µM with MCF7; 36.9 µM in the assay on HCT-116; 5.89 µM with HepG2; greater than 50 µM in assay [1]; 29.9 µM in the assay with L02; greater than 50 µM with B16. For the same compound, in the assay with K562, the IC50 was determined as 2.85 µM.

The values are drawn from ChEMBL document CHEMBL4706489, “Hydrogen sulfide releasing oridonin derivatives induce apoptosis through extrinsic and intrinsic pathways” (Eur J Med Chem, 2020).
